US20020156016A1, “Control of cell growth by altering cell membrane potentials” (priority 2001, published 2002)

How the values were obtained:
Type in all cases: cell-based, human
Chang cells = assay: Cell PD determination (TMRE fluorescence); settings: non-transfected Chang cells, 50 μM muscimol, 48 hours
Description: (§1) A Leica DM IRB fluorescence microscope equipped with a PDMI-2 Open perfusion Micro-incubator (Harvard Apparatus, Saint-Laurent, Quebec) was used to measure PDs as described by Loew (Loew, 1998, Cell Biology: A Laboratory Handbook). The incubating temperature was 37° C. Twenty four hour cultured healthy, human hepatocytes and malignant hepatocytes were washed with NB buffer (130 mM NaCl, 5.5 mM KCl, 1.8 mM CaCl2, 1.0 mM MgCl2, 25 mM glucose and 20 mM HEPES buffer adjusted to pH 7.4) three times and then incubated for 10 min with NTB buffer (100 nM tetramethylrhodamine ethyl ester (TMRE) in NB buffer). After obtaining photographs of the fluorescent cells, they were washed with KB buffer (130 mM KCl, 5.5 mM NaCl, 1.8 mM CaCl2, 1.0 mM MgCl2, 25 mM glucose and 20 mM HEPES buffer adjusted to pH 7.4) three times and incubated for 10 min with DTB buffer (100 nM TMRE and 1 μM valinomysin in KB buffer). Photographs were then obtained of the depolarized cells. Fluorescence within the cell was designated intracellular fluorescence (Fin) and fluorescence outside the cell as extracellular fluorescence (Fout). To calculate PDs the Nernst equation was used.
(§2) PD=−(RT/ZF)λn[Fin dFout)/(FoutdFin),
where PD is membrane potential, Z is the charge of the permeable ion, F is Faraday's constant, R is the ideal gas constant and T is the absolute temperature. […]

[1] = tested on: Chang cells transfected with GABAA-β3 receptor cDNA; assay: Cell PD determination (TMRE fluorescence) after muscimol exposure
Description: as §1, §2
(§3) where PD is membrane potential, Z is the charge of the permeable ion, F is Faraday's constant, R is the ideal gas constant and T is the absolute temperature.
(§4) To determine whether further hyperpolarization could be achieved in Chang cells transfected with GABAA-β3 receptor cDNA, these cells together with non-transfected Chang cells and Chang cells transfected with vector alone were exposed to 50 μM muscimol, a specific GABAA receptor agonist for 48 hours.

[2] = tested on: Chang cells transfected with vector alone; assay: as above; settings: 50 μM muscimol, 48 hours
Description: as §1, §2, §3, §4

[3] = tested on: Chang cells transfected with GABAA-β3 receptor cDNA; assay: Proliferative activity after varying concentrations of muscimol; settings: muscimol 0-100 μM, FIG. 12
Description: (§5) [^3H]-thymidine incorporation was determined as described by Luk (Luk, 1986, Gastroenterology 90: 1261-1267). 5×10^4 cells were seeded into 6-well plates. After two days of culture to allow attachment to plate bottoms, cells were incubated with 1 μCi [^3H]-thymidine for 2 hours at 37° C. [^3H]-thymidine incorporated into cellular DNA was precipitated by the addition of 10% trichloroacetic acid (TCA) for 15 min at room temperature. Cells were rinsed and resolublilized in a 0.3 M NaOH and 1% SDS solution then assayed for radioactivity in a […].
(§6) Bromodeoxyuridine (BrdUrd) incorporation was determined by seeding 5×10^3 cells into 96 well plates. At subconfluence, cells were incubated with serum-free DMEM. Twenty-four hours later, the media was switched to DMEM containing BrdUrd for 2 hours. Incoroporation of BrdUrd was determined using a 5-Bromo-2′-deoxyuridine Labeling and Detection Kit III (Roche Diagnostics, Mississauga, Ontario, Canada) according to the manufacturer's instructions. Absorbance at 450-490 nm was measured using a microplate reader (Molecular Devices, Menlo Park, Calif., USA).
(§7) WST-1 determinations were performed using a commercially available kit (Boehringer Mannheim Canada, Laval, Quebec, Canada). Briefly, 1×10^4 cells were seeded into 96 well plates. After two days of culture one tenth the volume of 4-[3-(4-lodophenyl)-2-(4-nitrophenyl)-2H-5-tetrazolio]-1,3-benzene disulfonate (WST-1, Boehringer Mannheim, Laval, PQ) was added to each well, and the cells incubated with WST-1 for 4 h in 37° C. Asborbance at A405-A650 was determined by a microplate reader (Molecular Devices, Menlo Park, Calif., USA).
(§8) To determine whether the addition of muscimol and/or other GABAA receptor agonists might have therapeutic value in inhibiting the growth of malignant hepatocytes with restored GABAAβ3 receptor mRNA expression, proliferative activity was documented in Chang cells transfected with GABAA-β3 receptor cDNA or vector alone following exposure to varying concentrations of muscimol (0-100 μM).

[4] = tested on: Chang cells transfected with vector alone; assay: as above; settings: muscimol 0-100 μM, FIG. 12
Description: as §5, §6, §7, §8

Compound: NCc1cc(=O)[nH]o1 [muscimol]
- effect on PDs (Chang cells): little or no effect
- increase of PDs after muscimol ([1]; 50 μM muscimol, 48 hours): approximately 40%
- PD post-muscimol ([1]; 50 μM muscimol, 48 hours, pre-muscimol −12.0±0.9): −16.4±0.8
- effect on membrane potentials (PDs), in words ([1]; Muscimol 50 μM, FIG. 11): became more polarized
- effect on PDs [2]: little or no effect
- proliferative activity [3]: dose dependent decrease
- proliferative activity ([3]; listed as Muscimol): significantly decreased in a dose dependent fashion
- proliferative activity [4]: remained essentially unaltered
